Reference: patent US9113629B2, “4-amino-6-(4-substituted-phenyl)-picolinates and 6-amino-2-(4-substituted-phenyl)-pyrimidine-4-carboxylates and their use as herbicides” (DOW AGROSCIENCES LLC, priority 2013, dated 2015)
Like-named read-outs stand apart in the source and are kept apart here.

What was measured:
[1] = test system: Key Broadleaf Weed and Crop Species; experiment: Post-emergent Test II herbicidal activity (Table 5); format: in vivo; settings: post-emergence, 336 h, post-emergent, 14 days after application; for pest or weed control at 70 g/ha: 70 g ai/ha; for pest or weed control at 140 g/ha: 140 g ai/ha
Summary of the method: (§1)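 Post-emergence foliar spray, 187 L/ha, track sprayer at 43 cm above canopy. Carrier: acetone/water/IPA/DMSO/Atplus 411F/Triton X-155. Plants at 1st–2nd true leaf; subirrigated afterwards; % injury scored visually at 14 d.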

[2] = test system: Key Grass and Sedge Weeds as well as Grass Crops; experiment: Post-emergent Test II herbicidal activity (Table 6); format: in vivo; settings: post-emergence, 336 h; for pest or weed control at 70 g/ha: application rate 70 g ai/ha; for pest or weed control at 140 g/ha: application rate 140 g ai/ha
Summary of the method: as §1

[3] = ABUTH: velvetleaf (Abutilon theophrasti), read-out: Visual Growth Reduction (%) 14 Days After Application ABUTH
[4] = AMARE: redroot pigweed (Amaranthus retroflexus), read-out: Visual Growth Reduction (%) 14 Days After Application AMARE
[5] = BRSNN: oilseed-rape, canola (Brassica napus), read-out: Visual Growth Reduction (%) 14 Days After Application BRSNN
[6] = CHEAL: lambsquarters (Chenopodium album), read-out: Visual Growth Reduction (%) 14 Days After Application CHEAL
[7] = EPHHL: wild poinsettia (Euphorbia heterophylla), read-out: Visual Growth Reduction (%) 14 Days After Application EPHHL
[8] = HELAN: sunflower (Helianthus annuus), read-out: Visual Growth Reduction (%) 14 Days After Application HELAN
[9] = VIOTR: wild pansy (Viola tricolor), read-out: Visual Growth Reduction (%) 14 Days After Application VIOTR
[10] = Triticum aestivum, TRZSS (wheat), read-out: Visual Growth Reduction (%) 14 Days After Application, TRZSS
[11] = CYPES: yellow nutsedge (Cyperus esculentus), read-out: Visual Growth Reduction (%) 14 Days After Application, CYPES
[12] = DIGSA: crabgrass (Digitaria sanguinalis), read-out: Visual Growth Reduction (%) 14 Days After Application, DIGSA
[13] = ECHCG: barnyardgrass (Echinochloa crus-galli), read-out: Visual Growth Reduction (%) 14 Days After Application, ECHCG
[14] = ORYSA: rice (Oryza sativa), read-out: Visual Growth Reduction (%) 14 Days After Application, ORYSA
[15] = SETFA: giant foxtail (Setaria faberi), read-out: Visual Growth Reduction (%) 14 Days After Application, SETFA
[16] = SORVU: grain sorghum (Sorghum vulgare), read-out: Visual Growth Reduction (%) 14 Days After Application, SORVU
[17] = ZEAMX: maize, corn (Zea mays), read-out: Visual Growth Reduction (%) 14 Days After Application, ZEAMX

C=Cc1c(N)nc(-c2ccc(C(F)(F)F)c(F)c2)nc1C(=O)OC [Compound 137, Methyl 6-amino-2-(3-fluoro-4-(trifluoromethyl)phenyl)-5-vinylpyrimidine-4-carboxylate]
60 to 74%: pest or weed control at 140 g/ha [1, 7] | pest or weed control at 140 g/ha [1, 8]
0 to 29%: pest or weed control at 70 g/ha [1, 4] | pest or weed control at 140 g/ha [1, 4] | pest or weed control at 70 g/ha [1, 5] | pest or weed control at 140 g/ha [1, 5] | pest or weed control at 70 g/ha [1, 6] | pest or weed control at 70 g/ha [1, 7] | pest or weed control at 70 g/ha [1, 9] | pest or weed control at 140 g/ha [1, 9] | pest or weed control at 70 g/ha [2, 10] | pest or weed control at 140 g/ha [2, 10] | pest or weed control at 70 g/ha [2, 12] | pest or weed control at 140 g/ha [2, 12] | pest or weed control at 70 g/ha [2, 13] | pest or weed control at 140 g/ha [2, 13] | pest or weed control at 70 g/ha [2, 14] | pest or weed control at 140 g/ha [2, 14] | pest or weed control at 70 g/ha [2, 15] | pest or weed control at 140 g/ha [2, 15] | pest or weed control at 70 g/ha [2, 16] | pest or weed control at 140 g/ha [2, 16] | pest or weed control at 70 g/ha [2, 17] | pest or weed control at 140 g/ha [2, 17]
45 to 59%: pest or weed control at 140 g/ha [1, 6] | pest or weed control at 70 g/ha [1, 8] | pest or weed control at 70 g/ha [2, 11] | pest or weed control at 140 g/ha [2, 11]
85 to 94%: pest or weed control at 140 g/ha [1, 3]
75 to 84%: pest or weed control at 70 g/ha [1, 3]
